Measured values from the NIST ThermoML archive (doi:10.1007/s10765-011-0997-8).
± gives the expanded uncertainty stated by the source.

Conditions: 101.33 kPa, Liquid; for speed of sound: Linear variable-path acoustic interferometer; for mass density: Pycnometric method

Compound: Cc1ccccc1C [1,2-dimethylbenzene]
- speed of sound (298.15 K): 1346 ± 2 m/s
- mass density (298.15 K): 875.9 ± 0.28 kg/m3

Compound: Cc1ccc(C)cc1 [1,4-dimethylbenzene]
- speed of sound (298.15 K): 1310 ± 2 m/s
- mass density (298.15 K): 856.65 ± 0.28 kg/m3

Compound: c1ccccc1 [benzene]
- speed of sound (298.15 K): 1298 ± 3 m/s
- mass density (298.15 K): 873.64 ± 0.46 kg/m3

Compound: C1CCOCC1 [tetrahydropyran]
- speed of sound (298.15 K): 1272 ± 3 m/s
- mass density (308.15 K): 868.81 ± 0.49 kg/m3

Compound: Cc1ccccc1 [toluene]
- speed of sound (298.15 K): 1303 ± 2 m/s
- mass density (298.15 K): 862.22 ± 0.31 kg/m3
